Results: patent publication US20240335547A1, “MODIFIED CHOLIC ACID CONJUGATES” (priority 2022, published 2024)
Values after ≈ are worked out from the molar mass of the structure shown. Values joined by “and” are separate entries in the source; they are usually repeats but may differ in a detail not shown here. Equal entries are not always repeated. Where two headings read alike, the source gives them in different places.

Experiments:
human coronavirus 229E = test: Therapeutic activity against human coronavirus 229E in HFF cells; type: cell-based; conditions: Human coronavirus 229E, HFF; added 24 hours post infection, cells cultured for two weeks, cell viability; read-out: EC50
Procedure: (1) HFF cells (5×104) were seeded with 1 ml of DMEM media supplemented with 10% FBS in each well of four 24-well tissue culture plates. (2) Cell were cultured for 3 days until HFF cells in each well attained 90% confluency (media was changed 1 day before infection). 10 μl of the 10-time diluted original solution of coronavirus, about 1×10^5 PFU were added into each well. Infection was allowed to proceed overnight. (3) The media was changed 24 hours post infection. CSA-44 was added to test their anti-viral effects. Ten different concentrations of the drug were tested. They were 15 μg/ml, 10 μg/ml, 9 μg/ml, 8 μg/ml, 7 μg/ml, 6 μg/ml, 5 μg/ml, 4 μg/ml, 3 μg/ml, and 2 μg/ml with 0 μg/ml as the control. Each concentration has 12 wells for test. Cells were cultured for two weeks, and cell viability was quantified. CSA-44 was effective in inhibiting viral replication and growth. The values of EC50 (where EC is the concentration of the active that gives 50% of the maximal response) of CSA-44 is identified as 4 μg/ml.
(1) HFF cells (5×104) were seeded with 1 ml of DMEM media supplemented with 10% FBS in each well of four 24-well tissue culture plates. (2) Cells were cultured for 3 days until HFF cells in each well attained 90% confluency (media was changed 1 day before infection). Ten μl of the 10-time diluted original solution of coronavirus, about 1×10^5 PFU, were added into each well. Infection was allowed to proceed overnight. (3) The media was changed 24 hours post infection. Different concentrations of CSA-44 were added to test their anti-viral effects. Each concentration has 12 wells for test. Cells were cultured in the presence of CSA-44 for […] and cell viability was quantified.
(1) HFF cells (5×104) were seeded with 1 ml of DMEM media supplemented with 10% FBS in each well of four 24-well tissue culture plates. (2) Cells were cultured for 3 days until HFF cells in each well attained 90% confluency (media was changed 1 day before infection). […] Cells were cultured for two weeks, and cell viability was quantified. […]

Calu-3 cells = test: Cytotoxicity Assay (MTS); type: cell-based; conditions: 24 h
Procedure: Calu-3 cells were seeded in 96-well plates one day prior to testing. At 80-90% confluency, growth medium was removed and replaced with a medium containing 50 μg/mL of compound 12 dilutions. All treatments were added in quadruplicate or quintuplicate wells. Plates were incubated for 24 h before being washed and replaced with fresh untreated growth medium. MTS was added to each well as recommended by the manufacturer's protocol (CellTiter 96 Aqueous One Solution Cell Proliferation Assay, Promega, Madison, WI, USA) and incubated for 3-4 h.
After incubation, absorbance was measured at 490 nm on a SpectraMax M5 (Molecular Devices, LLC, San Jose, CA, USA) plate reader with SoftMax Pro 6.2.1 software.

[1] = tested on: Calu-3 cells (ATCC #HTB-55); conditions: for % Luminescence / Luminescence intensity: 3 repeats
HCoV-229E = test: In vivo viral load in mice lung tissue; design: species or system BALB/c mice; conditions: 2 days and 3 days post-treatment, versus control mice
Procedure: FIG. 6 illustrates the in vivo viral load reduction in mice lung tissue administered Compound 12 compared to control mice that were not administered a compound of the disclosure. In the Group administered Compound 12, a substantial (30-200 fold) reduction of virus replication and production was recorded 2 days and 3 days post-treatment.
Group C: Infection with 229E, treated with PBS: Thirty five (35) BALB/c 6-weeks old female mice were used for this group. Mice were first anesthetized with isoflurane. Each mouse was intranasally infected with 1×105 plaque forming unit (pfu) of HCoV-229E and then treated with PBS (75 ul) 24 hours later. Mice were sacrificed at 24 hrs post infection, and 24 hrs, 48 hrs, 72 hrs, 6 days, and 7 days post treatment. The lungs from these mice were collected for viral load, immunohistochemistry and cytokines analysis.
Group D: Infection with 229E, treated with Compound 12: Forty Five (45) BALB/c 6-weeks old female mice were used for this group. Mice were first anesthetized with isoflurane. Each mouse was intranasally infected with 1×10^5 pfu of HCoV-229E and then treated with 0.5 mg of Compound 12 diluted in PBS (75 ul) 24 hours later. Mice from this group were sacrificed at 24 hrs, 48 hrs, 72 hrs, 6 days and 7 days post treatment. The lungs from these mice were collected for viral load, immunohistochemistry and cytokines analysis.

## C[C@H](CCC(=O)NCCNC(=O)CCCC[C@@H]1SCC2NC(=O)NC21)C1CCC2C3C(C[C@H](OC(=O)CCN)[C@@]21C)[C@@]1(C)CC[C@@H](OC(=O)CCN)CC1C[C@H]3OC(=O)CCN (stereo partly shown) [Compound 12]
Human coronavirus 229E
  EC50: 3 µg/mL (≈ 3.37 µM)
Calu-3 cells
  IC50 (i.e., CC50): 154 µM
[1]; 20 uM
  % Luminescence: 102% and 97% and 101%
  Luminescence intensity: 27,723 and 26,322 and 27,521
[1]; 26.7 uM
  % Luminescence: 103% and 97% and 99%
  Luminescence intensity: 27,962 and 26,310 and 26,857
[1]; 35.6 uM
  % Luminescence: 105% and 103% and 104%
  Luminescence intensity: 28,560 and 28,084 and 28,199
[1]; 47.5 uM
  % Luminescence: 110% and 105% and 104%
  Luminescence intensity: 29,946 and 28,451 and 28,177
[1]; 63.3 uM
  % Luminescence: 111% and 110% and 106%
  Luminescence intensity: 30,079 and 29,936 and 28,795
[1]; 84.4 uM
  % Luminescence: 110% and 109% and 108%
  Luminescence intensity: 29,975 and 29,736 and 29,345
[1]; 112.5 uM
  % Luminescence: 108% and 106% and 105%
  Luminescence intensity: 29,458 and 28,788 and 28,587
[1]; 150 uM
  % Luminescence: 107% and 104% and 106%
  Luminescence intensity: 29,194 and 28,202 and 28,754
[1]; 200 uM
  % Luminescence: 111% and 107% and 106%
  Luminescence intensity: 30,150 and 29,181 and 28,872
[1]; human, 3 days
  CC50: > 200 µM
HCoV-229E
  reduction of virus replication and production: 30-200 fold
